From patent publication US20130252935A1, “Monobactams” (PFIZER INC., priority 2010, published 2013) come the findings set out here.

What all share (type): cell-based
Assay [1] relates to Acinetobacter baumannii/haemolyticus AB-3167. Briefly: minimum inhibitory concentration (MIC) testing according to CLSI guidelines, Acinetobacter. The conditions noted are these: multidrug-resistant clinical isolate AB-3167, overnight incubation, lower of duplicate values; for MIC: Acinetobacter baumannii, read-out: AB-MBT: Acinetobacter baumanii AB-3167: MIC (MstRcnt). The procedure, abridged: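 Broth dilution MIC per CLSI M7-A8/M100-S20 against multidrug-resistant clinical isolate AB-3167, using 2-fold drug dilutions and overnight incubation; MIC is the lowest concentration without visible growth. Duplicates within 2-fold reported as the lower value, with control strains and reference compounds in range.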

In assay [2] the test system is Klebsiella pneumoniae 1000-02. Briefly: minimum inhibitory concentration (MIC) testing according to CLSI guidelines, Klebsiella pneumoniae. The conditions noted are these: ciprofloxacin-resistant, ESBL-expressing clinical isolate 1000-02, overnight incubation, lower of duplicate values; for MIC: Klebsiella pneumoniae, read-out: AB-MBT: Klebsiella pneumoniae 1000-02: MIC (MstRcnt). The procedure, abridged: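 MIC by CLSI broth dilution with 2-fold concentration steps and overnight incubation; lowest concentration visibly inhibiting growth versus drug-free control. Ciprofloxacin-resistant, ESBL-expressing clinical isolate 1000-02. Run in duplicate, lower value reported when within 2-fold, with QC organisms and reference compounds per run.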

In assay [3] the test system is Pseudomonas aeruginosa UC-12120. Kind of assay: minimum inhibitory concentration (MIC) testing according to CLSI guidelines, Pseudomonas aeruginosa. The conditions noted are these: UC-12120, wild-type, labeled as 1091-05, overnight incubation, lower of duplicate values; for MIC: Pseudomonas aeruginosa, UC12120, read-out: AB-MBT: Pseudomonas aeruginosa 1091-05: MIC (MstRcn). A digest of the protocol: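 Broth dilution MIC per CLSI guidelines against wild-type P. aeruginosa UC-12120 (1091-05), using 2-fold drug dilutions and overnight incubation with visual reading of lowest growth-inhibiting concentration. Tested in duplicate; lower value reported when within 2-fold, with control organisms and reference compounds for quality control.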

Values after ≈ are worked out from the molar mass of the structure shown.

`CC(C)(O/N=C(\C(=O)N[C@@H]1C(=O)N(S(=O)(=O)O)[C@@H]1CNC(=O)c1cccc(NC(=O)c2cc(=O)c(O)cn2O)c1)c1csc(N)n1)C(=O)O` [Example 67, 2-({[(1Z)-1-(2-amino-1,3-thiazol-4-yl)-2-{[(2R,3S)-2-{[(3-{[(1,5-dihydroxy-4-oxo-1,4-dihydropyridin-2-yl)carbonyl]amino}benzoyl)amino]methyl}-4-oxo-1-sulfoazetidin-3-yl]amino}-2-oxoethylidene]amino}oxy)-2-methylpropanoic acid]: the MIC in assay [1] came to 2 µg/mL (≈ 2.77 µM); in assay [2], 4 µg/mL (≈ 5.54 µM); in assay [3] it was 4 µg/mL (≈ 5.54 µM).
On to `Nc1nc(/C(=N/OC2(C(=O)O)CCCC2)C(=O)N[C@@H]2C(=O)N(S(=O)(=O)O)[C@@H]2CNC(=O)NCc2cc(=O)c(O)cn2O)cs1` [Example 26, 1-({[(1Z)-1-(2-amino-1,3-thiazol-4-yl)-2-({(2R,3S)-2-[({[(1,5-dihydroxy-4-oxo-1,4-dihydropyridin-2-yl)methyl]carbamoyl}amino)methyl]-4-oxo-1-sulfoazetidin-3-yl}amino)-2-oxoethylidene]amino}oxy)cyclopentanecarboxylic acid], for which the MIC in assay [1] amounted to 0.25 µg/mL (≈ 0.38 µM); in assay [2] it was 0.125 µg/mL (≈ 0.19 µM); in assay [3], 0.125 µg/mL (≈ 0.19 µM).
For `CC(C)(O/N=C(\C(=O)N[C@@H]1C(=O)N(S(=O)(=O)O)[C@@H]1CNC(=O)C1CN(C(=O)c2cc(=O)c(O)c[nH]2)C1)c1csc(N)n1)C(=O)O` [Example 8, 2-({[(1Z)-1-(2-amino-1,3-thiazol-4-yl)-2-{[(2R,3S)-2-{[({1-[(5-hydroxy-4-oxo-1,4-dihydropyridin-2-yl)carbonyl]azetidin-3-yl}carbonyl)amino]methyl}-4-oxo-1-sulfoazetidin-3-yl]amino}-2-oxoethylidene]amino}oxy)-2-methylpropanoic acid], the MIC was 1 µg/mL (≈ 1.49 µM) in assay [1], 4 µg/mL (≈ 5.96 µM) in assay [2] and 1 µg/mL (≈ 1.49 µM) in assay [3].
Turning to `CC(C)(O/N=C(\C(=O)N[C@@H]1C(=O)N(S(=O)(=O)O)[C@@H]1CNC(=O)NCc1cc(=O)c(O)cn1O)c1nc(N)sc1Cl)C(=O)O` [Example 29, 2-({[(1Z)-1-(2-amino-5-chloro-1,3-thiazol-4-yl)-2-({(2R,3S)-2-[({[(1,5-dihydroxy-4-oxo-1,4-dihydropyridin-2-yl)methyl]carbamoyl}amino)methyl]-4-oxo-1-sulfoazetidin-3-yl}amino)-2-oxoethylidene]amino}oxy)-2-methylpropanoic acid], the figures for the MIC in assay [1], in assay [2] and in assay [3] were 0.5 µg/mL (≈ 0.75 µM), 1 µg/mL (≈ 1.5 µM) and 0.25 µg/mL (≈ 0.375 µM), respectively.
For `CC(C)(O/N=C(\C(=O)N[C@@H]1C(=O)N(S(=O)(=O)O)[C@@H]1Cn1cc(-c2cc(=O)c(O)cn2O)nn1)c1csc(N)n1)C(=O)O` [Example 3, 2-({[(1Z)-1-(2-amino-1,3-thiazol-4-yl)-2-{[(2R,3S)-2-{[4-(1,5-dihydroxy-4-oxo-1,4-dihydropyridin-2-yl)-1H-1,2,3-triazol-1-yl]methyl}-4-oxo-1-sulfoazetidin-3-yl]amino}-2-oxoethylidene]amino}oxy)-2-methylpropanoic acid], the MIC worked out at 0.5 µg/mL (≈ 0.797 µM) in assay [1], 0.25 µg/mL (≈ 0.398 µM) in assay [2] and 0.125 µg/mL (≈ 0.199 µM) in assay [3].
Taken in the same sequence, the figures for `C[C@H](NC(=O)c1cc(=O)c(O)cn1O)C(=O)NC[C@@H]1[C@H](NC(=O)/C(=N\OC(C)(C)C(=O)O)c2csc(N)n2)C(=O)N1S(=O)(=O)O` [Example 54, 2-({[(1Z)-1-(2-amino-1,3-thiazol-4-yl)-2-({(2R,3S)-2-[({N-[(1,5-dihydroxy-4-oxo-1,4-dihydropyridin-2-yl)carbonyl]-L-alanyl}amino)methyl]-4-oxo-1-sulfoazetidin-3-yl}amino)-2-oxoethylidene]amino}oxy)-2-methylpropanoic acid] were 0.25 µg/mL (≈ 0.371 µM), 1 µg/mL (≈ 1.48 µM) and 0.25 µg/mL (≈ 0.371 µM).
Taken in the same sequence, the figures for `CC(C)(O/N=C(\C(=O)N[C@@H]1C(=O)N(S(=O)(=O)O)[C@@H]1CNC(=O)c1cccc(S(=O)(=O)NCc2cc(=O)c(O)cn2O)c1)c1csc(N)n1)C(=O)O` [Example 40, 2-({[(1Z)-1-(2-amino-1,3-thiazol-4-yl)-2-{[(2R,3S)-2-({[3-({[(1,5-dihydroxy-4-oxo-1,4-dihydropyridin-2-yl)methyl]amino}sulfonyl)benzoyl]amino}methyl)-4-oxo-1-sulfoazetidin-3-yl]amino}-2-oxoethylidene]amino}oxy)-2-methylpropanoic acid] were 0.25 µg/mL (≈ 0.324 µM), 0.5 µg/mL (≈ 0.647 µM) and 0.25 µg/mL (≈ 0.324 µM).
As for `C[C@H](NC(=O)NCc1cc(=O)c(O)cn1O)C(=O)NC[C@@H]1[C@H](NC(=O)/C(=N\OC(C)(C)C(=O)O)c2csc(N)n2)C(=O)N1S(=O)(=O)O` [Example 55, 2-({[(1Z)-1-(2-amino-1,3-thiazol-4-yl)-2-{[(2R,3S)-2-{[(N-{[(1,5-dihydroxy-4-oxo-1,4-dihydropyridin-2-yl)methyl]carbamoyl}-L-alanyl)amino]methyl}-4-oxo-1-sulfoazetidin-3-yl]amino}-2-oxoethylidene]amino}oxy)-2-methylpropanoic acid], the MIC in assay [1] was found to be 0.5 µg/mL (≈ 0.711 µM); in assay [2] it was 2 µg/mL (≈ 2.84 µM); in assay [3] it was 0.25 µg/mL (≈ 0.355 µM).
In the same order, the values of `CC(C)(O/N=C(\C(=O)N[C@@H]1C(=O)N(S(=O)(=O)O)[C@@H]1CNC(=O)C1CN(Cc2cc(=O)c(O)c[nH]2)C1)c1csc(N)n1)C(=O)O` [Example 9, 2-({[(1Z)-1-(2-amino-1,3-thiazol-4-yl)-2-{[(2R,3S)-2-{[({1-[(5-hydroxy-4-oxo-1,4-dihydropyridin-2-yl)methyl]azetidin-3-yl}carbonyl)amino]methyl}-4-oxo-1-sulfoazetidin-3-yl]amino}-2-oxoethylidene]amino}oxy)-2-methylpropanoic acid] are 2 µg/mL (≈ 3.05 µM), 4 µg/mL (≈ 6.09 µM) and 4 µg/mL (≈ 6.09 µM).
Taken in the same sequence, the figures for `CC(C)(O/N=C(\C(=O)N[C@@H]1C(=O)N(S(=O)(=O)O)[C@@H]1CNC(=O)c1ccnc(-c2cc(=O)c(O)cn2O)n1)c1csc(N)n1)C(=O)O` [Example 23, 2-({[(1Z)-1-(2-amino-1,3-thiazol-4-yl)-2-({(2R,3S)-2-[({[2-(1,5-dihydroxy-4-oxo-1,4-dihydropyridin-2-yl)pyrimidin-4-yl]carbonyl}amino)methyl]-4-oxo-1-sulfoazetidin-3-yl}amino)-2-oxoethylidene]amino}oxy)-2-methylpropanoic acid] were 0.25 µg/mL (≈ 0.367 µM), 0.25 µg/mL (≈ 0.367 µM) and 1 µg/mL (≈ 1.47 µM).
In the same order, the values of `C[C@@H](NC(=O)NCc1cc(=O)c(O)cn1O)C(=O)NC[C@@H]1[C@H](NC(=O)/C(=N\OC(C)(C)C(=O)O)c2csc(N)n2)C(=O)N1S(=O)(=O)O` [Example 49, 2-({[(1Z)-1-(2-amino-1,3-thiazol-4-yl)-2-{[(2R,3S)-2-{[(N-{[(1,5-dihydroxy-4-oxo-1,4-dihydropyridin-2-yl)methyl]carbamoyl}-D-alanyl)amino]methyl}-4-oxo-1-sulfoazetidin-3-yl]amino}-2-oxoethylidene]amino}oxy)-2-methylpropanoic acid] are 0.5 µg/mL (≈ 0.711 µM), 0.5 µg/mL (≈ 0.711 µM) and 0.5 µg/mL (≈ 0.711 µM).
As to `CC(C)(O/N=C(\C(=O)N[C@@H]1C(=O)N(S(=O)(=O)[O-])[C@@H]1CNC(=O)OCc1cc(=O)c(O)cn1O)c1csc(N)n1)C(=O)[O-].[Na+].[Na+]` [Example 5, disodium 2-({[(1Z)-1-(2-amino-1,3-thiazol-4-yl)-2-({(2R,3S)-2-[({[(1,5-dihydroxy-4-oxo-1,4-dihydropyridin-2-yl)methoxy]carbonyl}amino)methyl]-4-oxo-1-sulfonatoazetidin-3-yl}amino)-2-oxoethylidene]amino}oxy)-2-methylpropanoate], the MIC in assay [1] was 1 µg/mL; in assay [2], 4 µg/mL; in assay [3], 0.125 µg/mL.
In the same order, the values of `CC(C)(O/N=C(\C(=O)N[C@@H]1C(=O)N(S(=O)(=O)O)[C@@H]1CNC(=O)NCc1cc(-c2cc(=O)c(O)cn2O)no1)c1csc(N)n1)C(=O)O` [Example 47, 2-({[(1Z)-1-(2-amino-1,3-thiazol-4-yl)-2-{[(2R,3S)-2-{[({[3-(1,5-dihydroxy-4-oxo-1,4-dihydropyridin-2-yl)isoxazol-5-yl]methyl}carbamoyl)amino]methyl}-4-oxo-1-sulfoazetidin-3-yl]amino}-2-oxoethylidene]amino}oxy)-2-methylpropanoic acid] are 0.25 µg/mL (≈ 0.357 µM), 0.25 µg/mL (≈ 0.357 µM) and 0.125 µg/mL (≈ 0.179 µM).
Consider `CC(C)(O/N=C(\C(=O)N[C@@H]1C(=O)N(S(=O)(=O)O)[C@@H]1CNC(=O)OCc1cc(-c2cc(=O)c(O)cn2O)no1)c1csc(N)n1)C(=O)O` [Example 38, 2-(5-{[({[(2R,3S)-3-{[(2Z)-2-(2-amino-1,3-thiazol-4-yl)-2-{[(2-carboxypropan-2-yl)oxy]imino}acetyl]amino}-4-oxo-1-sulfoazetidin-2-yl]methyl}carbamoyl)oxy]methyl}isoxazol-3-yl)-1,5-dihydroxy-4-oxo-1,4-dihydropyridinium], for which, in assay [1], the “AB-MBT: Acinetobacter baumanii AB-3167: MIC (MstRcnt)” value turned out to be 0.5 µg/mL. Further, the “AB-MBT: Klebsiella pneumoniae 1000-02: MIC (MstRcnt)” value in assay [2] was 0.5 µg/mL. The “AB-MBT: Pseudomonas aeruginosa 1091-05: MIC (MstRcn)” value in assay [3] is 2.0 µg/mL.
